# From ChEMBL document CHEMBL3085738, “Synthesis, structure-activity relationship and biological evaluation of 2,4,5-trisubstituted pyrimidine CDK inhibitors as potential anti-tumour agents” (Eur J Med Chem, 2013)
# The source made the active and inactive calls. No cut-off for these calls is given here.
# How the values were obtained:
# CDK2/Cyclin A2 = CDK2/Cyclin A2 (Homo sapiens, UniProt P24941); experiment: Inhibition of CDK2/Cyclin A (unknown origin) by radiometric assay; assay type: protein-complex assay; settings: read-out: Ki(app)
# [1] = target: Cyclin-dependent kinase 7/ cyclin H (Homo sapiens, UniProt P50613); experiment: Inhibition of CDK7/Cyclin H (unknown origin) by radiometric assay; assay type: protein-complex assay; settings: read-out: Ki(app)
# [2] = target: Cyclin-dependent kinase 1/cyclin B1 (Homo sapiens, UniProt P06493); experiment: Inhibition of CDK1/Cyclin B (unknown origin) by radiometric assay; assay type: protein-complex assay; settings: read-out: Ki(app)
# CDK9/cyclin T1 = CDK9/cyclin T1 (Homo sapiens, UniProt P50750); experiment: Inhibition of CDK9/Cyclin T1 (unknown origin) by radiometric assay; assay type: protein-complex assay; settings: read-out: Ki(app)
# [3] = target: Cyclin-dependent kinase 9 (Homo sapiens) (UniProt P50750); experiment: Inhibition of CDK9 in human HCT116 cells assessed as decrease in RNAP2 CTD phosphorylation at Ser5 at 10 uM after 24 hrs by Western blot analysis; assay type: cell-based; settings: HCT-116
# [4] = target: Cyclin-dependent kinase 9 (Homo sapiens) (UniProt P50750); experiment: Inhibition of CDK9 in human HCT116 cells assessed as downregulation of Mcl-1 protein expression at 1 to 5 uM after 24 hrs by Western blot analysis; assay type: cell-based; settings: HCT-116
# [5] = target: Cyclin-dependent kinase 9 (Homo sapiens) (UniProt P50750); experiment: Inhibition of CDK9 in human HCT116 cells assessed as decrease in RNAP2 CTD phosphorylation at Ser2 at 1 to 5 uM after 24 hrs by Western blot analysis; assay type: cell-based; settings: HCT-116
# MCF7 = experiment: Growth inhibition of human MCF7 cells after 48 hrs by MTT assay; assay type: functional; settings: MCF7, 48 h
# HCT-116 = experiment: Growth inhibition of human HCT116 cells after 48 hrs by MTT assay; assay type: functional; settings: HCT-116, 48 h
# Homo sapiens = organism: Homo sapiens; experiment: Selectivity ratio of Ki(app) for CDK7/Cyclin H (unknown origin) to Ki(app) for CDK9/Cyclin T1 (unknown origin)
# Cyclin-dependent kinase 9 (Homo sapiens), sequence (P50750 whole entry): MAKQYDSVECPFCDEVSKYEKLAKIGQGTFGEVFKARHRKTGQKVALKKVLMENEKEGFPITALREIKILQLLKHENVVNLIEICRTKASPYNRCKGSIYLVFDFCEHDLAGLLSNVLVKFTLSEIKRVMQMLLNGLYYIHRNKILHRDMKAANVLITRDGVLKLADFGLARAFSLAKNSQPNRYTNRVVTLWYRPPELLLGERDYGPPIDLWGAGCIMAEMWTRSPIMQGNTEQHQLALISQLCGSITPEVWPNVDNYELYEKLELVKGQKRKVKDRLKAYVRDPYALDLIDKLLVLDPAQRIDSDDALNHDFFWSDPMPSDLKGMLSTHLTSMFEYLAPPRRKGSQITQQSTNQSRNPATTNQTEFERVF
# Cyclin-dependent kinase 1/cyclin B1, sequence (P06493 whole entry): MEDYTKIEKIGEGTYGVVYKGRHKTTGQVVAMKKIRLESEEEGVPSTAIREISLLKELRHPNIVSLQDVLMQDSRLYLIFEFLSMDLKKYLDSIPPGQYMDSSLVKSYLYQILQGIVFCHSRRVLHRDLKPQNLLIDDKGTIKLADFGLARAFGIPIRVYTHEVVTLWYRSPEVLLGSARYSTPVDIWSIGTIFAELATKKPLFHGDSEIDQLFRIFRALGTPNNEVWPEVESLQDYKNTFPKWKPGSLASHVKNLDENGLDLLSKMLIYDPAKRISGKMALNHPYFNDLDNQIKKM
# Cyclin-dependent kinase 1/cyclin B1, sequence (P14635 whole entry, further chain): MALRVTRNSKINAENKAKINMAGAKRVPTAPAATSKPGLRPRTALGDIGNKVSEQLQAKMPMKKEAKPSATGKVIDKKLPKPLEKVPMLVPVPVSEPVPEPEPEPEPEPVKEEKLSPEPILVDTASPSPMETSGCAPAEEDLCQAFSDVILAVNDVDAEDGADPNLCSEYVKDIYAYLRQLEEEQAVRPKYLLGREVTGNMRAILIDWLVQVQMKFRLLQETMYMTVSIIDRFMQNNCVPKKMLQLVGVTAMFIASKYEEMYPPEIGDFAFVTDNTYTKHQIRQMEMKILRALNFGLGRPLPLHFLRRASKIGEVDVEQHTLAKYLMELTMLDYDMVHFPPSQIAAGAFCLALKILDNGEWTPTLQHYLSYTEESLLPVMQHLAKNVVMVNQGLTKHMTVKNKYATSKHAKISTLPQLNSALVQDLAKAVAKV
# CDK9/cyclin T1, sequence (O60563 whole entry): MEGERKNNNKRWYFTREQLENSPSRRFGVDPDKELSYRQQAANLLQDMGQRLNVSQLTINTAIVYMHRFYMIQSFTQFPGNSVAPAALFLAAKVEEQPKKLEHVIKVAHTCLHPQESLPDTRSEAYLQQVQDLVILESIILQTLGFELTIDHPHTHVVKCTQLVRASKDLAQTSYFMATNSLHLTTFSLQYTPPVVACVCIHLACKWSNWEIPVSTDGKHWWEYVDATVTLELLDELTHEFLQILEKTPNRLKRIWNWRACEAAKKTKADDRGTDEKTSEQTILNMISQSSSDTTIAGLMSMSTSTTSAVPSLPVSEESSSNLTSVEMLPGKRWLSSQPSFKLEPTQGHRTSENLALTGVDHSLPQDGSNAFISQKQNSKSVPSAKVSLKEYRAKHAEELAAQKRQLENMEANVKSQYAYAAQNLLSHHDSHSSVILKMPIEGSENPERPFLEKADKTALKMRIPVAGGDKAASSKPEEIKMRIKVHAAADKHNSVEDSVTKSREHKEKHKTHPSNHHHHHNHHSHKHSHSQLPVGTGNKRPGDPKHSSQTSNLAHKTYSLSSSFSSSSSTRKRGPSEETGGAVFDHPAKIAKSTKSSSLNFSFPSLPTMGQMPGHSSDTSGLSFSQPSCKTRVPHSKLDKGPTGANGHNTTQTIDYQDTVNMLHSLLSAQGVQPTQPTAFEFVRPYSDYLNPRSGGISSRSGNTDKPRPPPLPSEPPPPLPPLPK
# CDK9/cyclin T1, sequence (P50750 whole entry): as the sequence (P50750 whole entry) above
# Cyclin-dependent kinase 7/ cyclin H, sequence (P51946 whole entry): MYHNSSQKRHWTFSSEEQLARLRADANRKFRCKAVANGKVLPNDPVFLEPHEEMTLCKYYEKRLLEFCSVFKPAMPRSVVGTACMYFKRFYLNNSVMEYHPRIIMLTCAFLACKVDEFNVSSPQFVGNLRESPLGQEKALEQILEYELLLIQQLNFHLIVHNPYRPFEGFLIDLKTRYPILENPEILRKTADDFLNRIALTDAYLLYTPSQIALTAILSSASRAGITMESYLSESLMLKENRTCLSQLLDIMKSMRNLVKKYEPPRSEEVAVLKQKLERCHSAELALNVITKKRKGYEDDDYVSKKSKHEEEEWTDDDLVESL
# Cyclin-dependent kinase 7/ cyclin H, sequence (P50613 whole entry): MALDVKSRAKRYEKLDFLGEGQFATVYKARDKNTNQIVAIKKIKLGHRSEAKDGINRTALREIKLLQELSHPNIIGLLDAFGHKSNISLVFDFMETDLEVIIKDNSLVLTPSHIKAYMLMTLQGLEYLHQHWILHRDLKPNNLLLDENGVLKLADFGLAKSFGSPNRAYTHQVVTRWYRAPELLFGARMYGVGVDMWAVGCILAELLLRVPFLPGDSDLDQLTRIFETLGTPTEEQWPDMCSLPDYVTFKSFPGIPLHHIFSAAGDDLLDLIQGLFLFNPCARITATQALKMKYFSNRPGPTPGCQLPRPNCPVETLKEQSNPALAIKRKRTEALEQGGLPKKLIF
Structure (SMILES),Ki (CDK2/Cyclin A2),Ki [1],Ki [2],Ki (CDK9/cyclin T1),inhibition [3],inhibition [4],inhibition [5],GI50 (MCF7),GI50 (HCT-116),Ratio Ki(app) (Homo sapiens)
CNc1nc(C)c(-c2nc(Nc3cc(C(=O)N4CCN(C)CC4)ccc3Cl)ncc2C#N)s1,> 5000 nM,> 5000 nM,> 5000 nM,715 nM,–,–,–,–,–,–
CNc1nc(C)c(-c2nc(Nc3cccc(S(=O)(=O)NCCOC)c3)ncc2C#N)s1,22 nM,180 nM,34 nM,16 nM,–,–,–,–,–,–
CNc1nc(C)c(-c2nc(Nc3cccc(C(=O)NC4CCN(C)CC4)c3)ncc2C#N)s1,316 nM,163 nM,262 nM,14 nM,Active,Active,Active,–,–,–
CNc1nc(C)c(-c2ccnc(Nc3ccc(C)c(S(=O)(=O)N4CCOCC4)c3)n2)s1,294 nM,150 nM,357 nM,27 nM,–,–,–,1610 nM,940 nM,–
CNc1nc(C)c(-c2nc(Nc3cccc(C(=O)N4CCN(C(C)=O)CC4)c3)ncc2C#N)s1,134 nM,552 nM,166 nM,17 nM,–,–,–,–,–,–
CNc1nc(C)c(-c2nc(Nc3ccc(C)c(S(=O)(=O)N4CCOCC4)c3)ncc2F)s1,130 nM,133 nM,101 nM,11 nM,–,–,–,–,–,–
CNc1nc(C)c(-c2nc(Nc3cccc(S(C)(=O)=O)c3)ncc2C#N)s1,43 nM,110 nM,19 nM,5 nM,–,–,–,–,–,–
CNc1nc(C)c(-c2ccnc(Nc3cccc(C(=O)N4CCOCC4)c3)n2)s1,485 nM,393 nM,261 nM,95 nM,–,–,–,550 nM,520 nM,–
CNc1nc(C)c(-c2nc(Nc3cccc(S(=O)(=O)N4CCN(C)CC4)c3)ncc2C#N)s1,584 nM,24 nM,576 nM,35 nM,–,–,–,–,–,–
CNc1nc(C)c(-c2nc(Nc3cccc(S(=O)(=O)N4CCOCC4)c3)ncc2C#N)s1,55 nM,893 nM,73 nM,14 nM,–,–,–,–,–,–
CNc1nc(C)c(-c2nc(Nc3ccc(C(=O)NC4CCN(C)CC4)cc3)ncc2C#N)s1,32 nM,304 nM,43 nM,8 nM,–,–,–,–,–,–
CNc1nc(C)c(-c2nc(Nc3cccc(C(=O)N4CCOCC4)c3)ncc2C#N)s1,199 nM,1870 nM,205 nM,–,–,–,–,820 nM,590 nM,43
CNc1nc(C)c(-c2nc(Nc3cccc(S(=O)(=O)NCCOC)c3)ncc2F)s1,6 nM,30 nM,10 nM,3 nM,–,–,–,–,–,–

# Results, then the compound that gave them:
Ki (CDK2/Cyclin A2),Ki [1],Ki [2],Ki (CDK9/cyclin T1),inhibition [3],inhibition [4],inhibition [5],GI50 (MCF7),GI50 (HCT-116),Ratio Ki(app) (Homo sapiens),Structure (SMILES)
164 nM,840 nM,313 nM,19 nM,–,–,–,1380 nM,720 nM,–,CNc1nc(C)c(-c2nc(Nc3cccc(C(=O)N4CCN(C)CC4)c3)ncc2C#N)s1
68 nM,476 nM,65 nM,11 nM,–,–,–,–,–,–,Cc1nc(N)sc1-c1nc(Nc2cccc(N3CCN(C)CC3)c2)ncc1F
41 nM,541 nM,32 nM,7 nM,–,–,–,–,–,–,CNc1nc(C)c(-c2nc(Nc3cccc(N4CCN(C)CC4)c3)ncc2F)s1
–,252 nM,–,–,–,–,–,–,–,–,Cc1nc(N)sc1-c1nc(Nc2cccc(S(N)(=O)=O)c2)ncc1F
231 nM,542 nM,64 nM,36 nM,–,–,–,–,–,–,CNc1nc(C)c(-c2nc(Nc3cccc(C(=O)NC4CCN(C)CC4)c3)ncc2F)s1
77 nM,1460 nM,41 nM,11 nM,–,–,–,–,–,–,CC(=O)N1CCN(c2cccc(Nc3ncc(F)c(-c4sc(N)nc4C)n3)c2)CC1
